System: Escherichia coli strain ATCC25922
Experiment: standard microdilution assay to determine minimum inhibitory concentrations (MICs)
Assay type: cell-based
Conditions: Escherichia coli strain ATCC25922, microdilution
How it was run: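 E. coli strain ATCC25922 tested per CLSI microdilution methodology (about 100 microliters per well) to find minimum inhibitory concentrations. Activity scored categorically at a 16 micrograms/ml threshold.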

| SMILES | E. coli ATCC25922 MIC |
| --- | --- |
| COc1cc(-n2cc3cc(-c4cccc(OCCCN)c4)[nH]c3nc2=O)ccc1CNCCCNC(=N)N [Compound 1273] | + (a “+” indicates that the compound has an MIC value of 16 micrograms/ml or less) |
| N=C(N)NCCCNCc1ccc(-n2cc3cc(-c4cc(CN5CCS(=O)(=O)CC5)cc(N5CCNCC5)c4)[nH]c3nc2=O)cc1 [Compound 915] | + (a “+” indicates that the compound has an MIC value of 16 micrograms/ml or less) |
| N=C(N)NCCCNCc1ccc(-n2cc3cc(C4CCN(CCCCN)C4)[nH]c3nc2=O)cc1 (stereo not drawn) [Compound 1437] | + (a “+” indicates that the compound has an MIC value of 16 micrograms/ml or less) |
| N#CCCCN(C1CCNCC1)S(=O)(=O)c1ccc(-c2cc3cn(-c4ccc(CNCCCNC(=N)N)cc4)c(=O)nc3[nH]2)cc1 [Compound 842] | + (a “+” indicates that the compound has an MIC value of 16 micrograms/ml or less) |
| N=C(N)NCCCNCc1ccc(-n2cc3cc(-c4cc(CNCCN)cc(OC(F)(F)F)c4)[nH]c3nc2=O)cc1 [Compound 2070a] | + (a “+” indicates that the compound has an MIC value of 16 micrograms/ml or less) |
| COCc1cc(OCC(F)CN)cc(-c2cc3cn(-c4ccc(CNCCCNC(=N)N)cc4)c(=O)nc3[nH]2)c1 (stereo not drawn) [Compound 2036a] | + (a “+” indicates that the compound has an MIC value of 16 micrograms/ml or less) |
| N=C(N)NCCCCc1cc(OC(F)(F)F)cc(-c2cc3cn(-c4ccc(C(NCCCNC(=N)N)C(F)(F)F)cc4)c(=O)nc3[nH]2)c1 (stereo not drawn) [Compound 2082a] | + (a “+” indicates that the compound has an MIC value of 16 micrograms/ml or less) |
| N=C(N)NCCCNCc1ccc(-n2cc3cc(-c4cc(CO)cc(CCCCN)c4)[nH]c3nc2=O)cc1 [Compound 2065a] | + (a “+” indicates that the compound has an MIC value of 16 micrograms/ml or less) |
| N=C(N)NCCCNCc1ccc(-n2cc3cc(-c4cc(CCCCN)cc(S(N)(=O)=O)c4)[nH]c3nc2=O)cc1 [Compound 2092a] | + (a “+” indicates that the compound has an MIC value of 16 micrograms/ml or less) |
| N=C(N)NCCCNC(=O)c1ccc(-n2cc3cc(-c4ccc(S(=O)(=O)N(CC5COc6ccccc6O5)C5CCNCC5)cc4)[nH]c3nc2=O)cc1 (stereo not drawn) [Compound 1010] | + (a “+” indicates that the compound has an MIC value of 16 micrograms/ml or less) |
| CC1CN(S(=O)(=O)c2ccc(-c3cc4cn(-c5ccc(CNCCCN)cc5)c(=O)nc4[nH]3)cc2)CC(C)N1 (stereo not drawn) [Compound 853] | + (a “+” indicates that the compound has an MIC value of 16 micrograms/ml or less) |
| N=C(N)NCCCNCc1ccc(-n2cc3cc(-c4ccc(C(=O)NC5CNC5)cc4)[nH]c3nc2=O)cc1 [Compound 1412] | + (a “+” indicates that the compound has an MIC value of 16 micrograms/ml or less) |
| N=C(N)NCCCNCc1ccc(-n2cc3cc(-c4cccc(S(=O)(=O)N(CC5CC5)C5CCNCC5)c4)[nH]c3nc2=O)cc1 [Compound 1018] | + (a “+” indicates that the compound has an MIC value of 16 micrograms/ml or less) |
| N=C(N)NCCCNCc1ccc(-n2cc3cc(-c4cc(C(=O)N5CCc6ccccc6C5)cc(N5CCNCC5)c4)[nH]c3nc2=O)cc1 [Compound 1009] | + (a “+” indicates that the compound has an MIC value of 16 micrograms/ml or less) |
| NC(=O)CCCN(C1CCNCC1)S(=O)(=O)c1ccc(-c2cc3cn(-c4ccc(CNC(=O)CCN=C(N)N)cc4)c(=O)nc3[nH]2)cc1 [Compound 1194] | − (a “−” indicates that the compound has an MIC value greater than 16 micrograms/ml) |
| N=C(N)NCCCNCc1ccc(-n2cc3cc(-c4ccc(S(=O)(=O)N(Cc5ccccc5SC(F)(F)F)C5CCOCC5)cc4)[nH]c3nc2=O)cc1 [Compound 876] | − (a “−” indicates that the compound has an MIC value greater than 16 micrograms/ml) |
| CNCc1ccc(-n2cc3cc(-c4ccc(S(=O)(=O)N(Cc5ccc(Cl)c(Cl)c5)C5CCNCC5)cc4)[nH]c3nc2=O)cc1 [Compound 933] | − (a “−” indicates that the compound has an MIC value greater than 16 micrograms/ml) |
| N=C(N)NCCCNC(=O)c1ccc(-n2cc3cc(-c4ccc(S(=O)(=O)N(Cc5ccc(Cl)c(Cl)c5)C5CCNCC5)cc4)[nH]c3nc2=O)cc1 [Compound 995] | + (a “+” indicates that the compound has an MIC value of 16 micrograms/ml or less) |
| N=C(N)NCCCNCc1ccc(-n2cc3cc(-c4ccc(C(NC5CN(C(=N)N)C5)C(F)(F)F)cc4)[nH]c3nc2=O)cc1 (stereo not drawn) [Compound 1432] | + (a “+” indicates that the compound has an MIC value of 16 micrograms/ml or less) |
| N=C(N)NCCCNCc1ccc(-n2cc3cc(-c4cc(OC(F)(F)F)cc(S(=O)(=O)NCCN)c4)[nH]c3nc2=O)cc1 [Compound 2059a] | + (a “+” indicates that the compound has an MIC value of 16 micrograms/ml or less) |
| N=C(N)NCCCNCc1ccc(-n2cc3cc(-c4cc(CCN)cc(OCC(F)CN)c4)[nH]c3nc2=O)cc1 (stereo not drawn) [Compound 2011a] | + (a “+” indicates that the compound has an MIC value of 16 micrograms/ml or less) |
| N=C(N)N1CCC(NCCCS(=O)(=O)c2ccc(-c3cc4cn(-c5ccc(CNCCCN)cc5)c(=O)nc4[nH]3)cc2)C1 (stereo not drawn) [Compound 1292] | + (a “+” indicates that the compound has an MIC value of 16 micrograms/ml or less) |

Same assay, conditions: Escherichia coli, ATCC25922, Escherichia coli strain ATCC25922, microdilution; read-out: E. coli ATCC25922 MIC

| MIC [mg/L] | SMILES |
| --- | --- |
| > 16 | Cc1ccn(CCCN(C2CCNCC2)S(=O)(=O)c2cccc(-c3cc4cn(-c5ccc(C(N)=O)cc5)c(=O)nc4[nH]3)c2)n1 [Compound 1126] |
| > 16 | CN(C)CCOc1ccccc1-c1cc2cn(-c3ccc(CN)cc3)c(=O)nc2[nH]1 [Compound 1111] |
| < 16 | N=C(N)CCCN1CCCC(c2cc3cn(-c4ccc(CNCCCNC(=N)N)cc4)c(=O)nc3[nH]2)C1 (stereo not drawn) [Compound 2020a] |
| > 16 | CC(C)ONC(=O)c1ccc(-c2cn3cc(-c4ccc(CNCCCNC(=N)N)cc4)c(=O)nc3[nH]2)cc1 [Compound 737] |
| < 16 | N=C(N)NCCCNCc1ccc(-n2cc3cc(-c4cc(CCCCN)cc(OC(F)(F)F)c4)[nH]c3nc2=O)cc1 [Compound 2009a] |
| > 16 | Cn1cc2cc(-c3ccc(C(=O)NC4CCNCC4)cc3)[nH]c2nc1=O [Compound 581] |
| > 16 | NCc1ccc(-n2cc3cc(-c4ccc(S(=O)(=O)N(CCCN5CCOCC5)C5CCNCC5)cc4)[nH]c3nc2=O)cc1 [Compound 1038] |
| < 16 | NCCCNCc1ccc(-n2cc3cc(-c4ccc(C(=O)NC5CCNCC5)cc4)[nH]c3nc2=O)cc1 [Compound 227] |
| > 16 | NCc1ccc(-n2cc3cc(-c4cccc(S(=O)(=O)N(CCC(N)=O)C5CCNCC5)c4)[nH]c3nc2=O)cc1 [Compound 1249] |
| < 16 | NCCCN(CCCN)Cc1ccc(-n2cc3cc(-c4ccc(S(=O)(=O)NC5CCNCC5)cc4)[nH]c3nc2=O)cc1 [Compound 198] |
| < 16 | CC(C)(C)c1ccc(-c2cc3cn(-c4ccc(CNCCCN)cc4)c(=O)nc3[nH]2)cc1 [Compound 634] |
| < 16 | N=C(N)NCCCNCc1ccc(-n2cc3cc(C4CCNC4)[nH]c3nc2=O)cc1 (stereo not drawn) [Compound 1229] |
| < 16 | CN1CCN(c2cccc(-c3cc4cn(-c5ccc(CNCCCNC(=N)N)cc5)c(=O)nc4[nH]3)c2)CC1 [Compound 678] |
| > 16 | N=C(N)NCCCCOc1ccc(-c2cn3cc(-c4ccc(Br)cc4)[nH]c3nc2=O)cc1 [Compound 813] |
| < 16 | CN(C)C(=O)c1cc(-c2cc3cn(-c4ccc(CNCCCN)cc4)c(=O)nc3[nH]2)cc(N2CCNCC2)c1 [Compound 796] |
| > 16 | NCCCNCc1ccc(-c2cn3cc(-c4ccc(C(=O)NC56CC7CC(CC(C7)C5)C6)cc4)[nH]c3nc2=O)cc1 [Compound 717] |

| MIC [mg/L] | SMILES |
| --- | --- |
| < 16 | N=C(N)NCCCNCc1ccc(-n2cc3cc(-c4ccc(S(=O)(=O)[C@H]5CCNC5)cc4)[nH]c3nc2=O)cc1 [Compound 1154] |
| > 16 | O=c1nc2[nH]c(-c3ccc(S(=O)(=O)NC4CCNCC4)cc3)cc2cn1-c1cccc(OCC2CCNCC2)c1 [Compound 1141] |
| > 16 | N=C1NCCCN1CCCCCn1cc2cc(-c3ccc(S(=O)(=O)NC4CCNCC4)cc3)[nH]c2nc1=O [Compound 925] |
| > 16 | NCc1ccc(-n2cc3cc(C4C[C@@H](N)[C@@H](CO)O4)[nH]c3nc2=O)cc1 (stereo partly drawn) [Compound 1301] |
| < 16 | NC1CCN(Cc2ccc(-n3cc4cc(-c5ccc(S(=O)(=O)NC6CCNCC6)cc5F)[nH]c4nc3=O)cc2)CC1 [Compound 263] |
| > 16 | NCc1ccc(-n2cc3cc[nH]c3nc2=O)cc1 [Compound 142] |
| > 16 | NCc1ccc(-n2cc3cc(-c4cccc(OC[C@H](F)CN)c4)[nH]c3nc2=O)cc1 [Compound 1443] |
| > 16 | NOCCNC(=O)c1ccc(-n2cc3cc(-c4ccc(S(=O)(=O)NC5CCNCC5)cc4)[nH]c3nc2=O)cc1 [Compound 1136] |
| < 16 | N=C(N)NCCCNCc1ccc(-n2cc3cc(C4CCCN(CCNC(N)=O)C4)[nH]c3nc2=O)cc1 (stereo not drawn) [Compound 2019a] |
| > 16 | NCCC(=O)NCCCn1cc2cc(-c3ccc(S(=O)(=O)N[C@@H]4CCCNC4)cc3)[nH]c2nc1=O [Compound 1298] |
| > 16 | CNCc1ccc(-n2cc3cc(-c4ccc(S(=O)(=O)N(CCCn5ccc(C(F)(F)F)n5)C5CCNCC5)cc4)[nH]c3nc2=O)cc1 [Compound 1021] |
| < 16 | NCCCNCc1ccc(-n2cc3cc(CCS(=O)(=O)N(CC4CCOCC4)C4CCNCC4)[nH]c3nc2=O)cc1 [Compound 923] |
| < 16 | N=C(N)NCCCN(CCCN)Cc1ccc(-c2cn3cc(-c4ccc(Br)cc4)[nH]c3nc2=O)cc1 [Compound 640] |
| > 16 | NCCCCCc1ccc(-c2cn3cc(-c4ccc(Br)cc4)[nH]c3nc2=O)cc1 [Compound 886] |
| > 16 | N=C(N)NCCCNCc1ccc(-n2cc3cc(-c4cccc(OCCCO)c4)[nH]c3nc2=O)cc1 [Compound 1110] |

| SMILES | MIC [mg/L] |
| --- | --- |
| NCCCN(CCCN)Cc1ccc(-n2cc3cc(-c4ccc(S(=O)(=O)NC5CN6CCC5CC6)cc4)[nH]c3nc2=O)cc1 (stereo not drawn) [Compound 201] | < 16 |

Reference: US9193731B2, “Antimicrobial compounds and methods of making and using the same” (Melinta Therapeutics, Inc., priority 2009, dated 2015)
